# Results reported in PubChem BioAssay AID190 (DTP/NCI, 2004).
# Values joined by “and” are separate entries in the source; they are usually repeats but may differ in a detail not shown here. Identical values can stand only once. Toxic doses and inconclusive results are not listed.
# Tested on: AKR/Lw mice, AKR lymphoma ip, median survival T/C
# Test: NCI In Vivo Anticancer Drug Screen. Data for tumor model Lymphoma AKR (Transplanted) (intraperitoneal) in AKR/Lw mice
# Settings: endpoint: median survival time, higher = longer survival
# Experimental: The antitumor activity of compounds was measured in mice bearing transplantable tumors. Survival or tumor size were measured and the results are expressed as the measurement made in the treated group (T) divided by the measurement made in the vehicle treated control group (C). The tumor model used in this assay is Lymphoma AKR (Transplanted) (intraperitoneal) in AKR/Lw mice
# [1] = dose: 200.0 mg/kg/injection, schedule: Q01DX001 (ip), vehicle: saline
# [2] = dose: 400.0 mg/kg/injection, schedule: Q01DX001 (ip), vehicle: saline
# [3] = dose: 200.0 mg/kg/injection, schedule: Q01DX001 (ip), vehicle: Klucel (hydroxypropylcellulose) (HPC)
# [4] = dose: 400.0 mg/kg/injection, schedule: Q01DX001 (ip), vehicle: Klucel (hydroxypropylcellulose) (HPC)
# [5] = dose: 100.0 mg/kg/injection, schedule: Q01DX001 (ip), vehicle: Klucel (hydroxypropylcellulose) (HPC)
# [6] = dose: 100.0 mg/kg/injection, schedule: Q01DX001 (ip), vehicle: saline
smiles,measurement,setting,value
CS(=O)(=O)OCCCNCCCOS(C)(=O)=O,T/C,"dose: 1.6 mg/kg/injection, schedule: Q01DX009 (ip), vehicle: saline",94 % of control
same,T/C,"dose: 1.9 mg/kg/injection, schedule: Q01DX009 (ip), vehicle: saline",96 % of control
same,T/C,"dose: 2.0 mg/kg/injection, schedule: Q01DX009 (ip), vehicle: saline",107 % of control
same,T/C,"dose: 3.1 mg/kg/injection, schedule: Q01DX009 (ip), vehicle: saline",88 % of control and 100 % of control and 115 % of control
same,T/C,"dose: 3.8 mg/kg/injection, schedule: Q01DX009 (ip), vehicle: saline",106 % of control
same,T/C,"dose: 4.0 mg/kg/injection, schedule: Q01DX009 (ip), vehicle: saline",103 % of control
same,T/C,"dose: 6.2 mg/kg/injection, schedule: Q01DX009 (ip), vehicle: saline",102 % of control
same,T/C,"dose: 6.3 mg/kg/injection, schedule: Q01DX009 (ip), vehicle: saline",97 % of control
same,T/C,"dose: 8.0 mg/kg/injection, schedule: Q01DX009 (ip), vehicle: saline",100 % of control
same,T/C,"dose: 12.5 mg/kg/injection, schedule: Q01DX001 (ip), vehicle: saline",124 % of control
same,T/C,"dose: 12.5 mg/kg/injection, schedule: Q04DX003 (ip), vehicle: saline",102 % of control and 106 % of control
same,T/C,"dose: 25.0 mg/kg/injection, schedule: Q01DX001 (ip), vehicle: saline",110 % of control
same,T/C,"dose: 25.0 mg/kg/injection, schedule: Q04DX003 (ip), vehicle: saline",106 % of control and 112 % of control
same,T/C,"dose: 27.0 mg/kg/injection, schedule: Q04DX003 (ip), vehicle: water",113 % of control
same,T/C,"dose: 45.0 mg/kg/injection, schedule: Q01DX001 (ip), vehicle: saline",112 % of control
same,T/C,"dose: 60.0 mg/kg/injection, schedule: Q01DX009 (ip), vehicle: saline",100 % of control and 123 % of control
same,T/C,"dose: 75.0 mg/kg/injection, schedule: Q01DX001 (ip), vehicle: saline",108 % of control
same,T/C,"dose: 108.0 mg/kg/injection, schedule: Q04DX003 (ip), vehicle: water",192 % of control
COc1cc(N)c2ncccc2c1SC,T/C,[1],102 % of control
same,T/C,[2],106 % of control
OCC1=C(CO)C2(Cl)C(Cl)=C(Cl)C1(Cl)C2(Cl)Cl,T/C,[3],95 % of control
same,T/C,[4],91 % of control
CC(=O)NC1CC2c3ccccc3C1([N+](=O)[O-])c1ccccc12 (stereo not given),T/C,[5],104 % of control
same,T/C,[3],97 % of control
same,T/C,[4],102 % of control
COc1cccc2c1CCC1=C2CC2C(=O)C1CCC2(C)O (stereo not given),T/C,[6],88 % of control
same,T/C,[1],97 % of control
same,T/C,[2],100 % of control
c1ccc(CC(Cc2ccccc2)CN2CCCC2)cc1,T/C,[6],94 % of control
same,T/C,[1],88 % of control
same,T/C,[2],123 % of control
COc1cc([C@@H]2c3cc4c(cc3C[C@H]3COC(=O)[C@@H]32)OCO4)cc(OC)c1OC,T/C,"dose: 5.0 mg/kg/injection, schedule: Q01DX009 (ip), vehicle: Klucel (hydroxypropylcellulose) (HPC)",107 % of control
CCCCC(C(=O)OCC)C(CCC1CCCCC1)(C(=O)OCC)C(=O)OCC (stereo not given),T/C,[5],110 % of control
same,T/C,[3],104 % of control
CO[C@H](C(=O)[C@@H](O)[C@@H](C)O)[C@@H]1Cc2cc3cc(OC4CC(OC5CC(O)C(O)C(C)O5)C(O)C(C)O4)c(C)c(O)c3c(O)c2C(=O)[C@H]1OC1CC(OC2CC(OC3CC(C)(O)C(O)C(C)O3)C(O)C(C)O2)C(O)C(C)O1 (stereo not given in full),T/C,"dose: 0.12 mg/kg/injection, schedule: Q01DX009 (ip), vehicle: saline",115 % of control
same,T/C,"dose: 0.25 mg/kg/injection, schedule: Q01DX009 (ip), vehicle: water",95 % of control
same,T/C,"dose: 0.5 mg/kg/injection, schedule: Q01DX009 (ip), vehicle: water",110 % of control
NC(CSC(c1ccccc1)(c1ccccc1)c1ccc(CO)cc1)C(=O)O (stereo not given),T/C,[5],100 % of control
same,T/C,[3],94 % of control
same,T/C,[4],110 % of control
